Usually IC50 stands for the midpoint of a concentration-inhibition curve.

Here are results for eight compounds from patent EP4759817A1, “HETEROARYL COMPOUND, PREPARATION METHOD THEREFOR, AND USE THEREOF IN MEDICINE” (Jiangsu Hengrui Pharmaceuticals Co., Ltd., priority 2023, dated 2025).

Data set [1] concerns the target T1, Recombinant human PRMT5: MEP50 protein (Homo sapiens, UniProt O14744).
T1 construct: purchased active motif 31521
The data set is described as follows: Inhibitory activity against human PRMT5 enzymatic activity (HTRF quantification of SAH, +MTA). Particulars: +1 µM MTA; histone H4 peptide substrate (1-21), SAM; 37°C 120 min. It is filed as biochemical. On the procedure:
• 1. Recombinant human PRMT5: MEP50 protein (active motif, 31521) • 2. EPIgeneous Methyltransferase kit (cisbio, 62SAHPEH) • 3. 96-well plate (Sangon Biotech, F610960-0010) • 4. 384-well white plate (Perkin Elmer, 6007290) • 5. 1 M Tris-HCl [pH 8.5] (Sangon Biotech, B548141) • 6. Histone H4 peptide substrates (1-21) (BPS bioscience, 52014) • 7. 5'-deoxy-5'-(methylthio)adenosine (Aladdin, D168979-25 mg) • 8. Tween-20 (Sangon Biotech, A100777-0500) • 9. DMSO (Sigma, D2650) • 10. Incubator (Shanghai Boxun Medical Biological Instrument Corp.) • 11. PHERAstar FS microplate reader (BMG Labtech)
PRMT5 can induce the transfer of a methyl group from S-adenosylmethionine (SAM) to a histone H4 peptide substrate (1-21), generating S-adenosylhomocysteine (SAH). In this experiment, the amount of SAH produced in the reaction is quantified using a Homogeneous Time-Resolved Fluorescence (HTRF) method to evaluate the inhibitory activity of compounds against PRMT5 enzymatic activity.
The sample diluent containing (or not containing) 1 µM 5 '-deoxy-5' - (methylthiyl) adenosine (MTA) was prepared using the EPIgeneous Diluent Buffer from the EPIgeneous Methyltransferase kit. With reference to the instructions, SAM and SAH standards were serially diluted and dispensed at 10 µL per well (in duplicate for each concentration). 2 µL of EPIgeneous Detection Buffer 1 was added to each well, and the plate was centrifuged, shaken to mix thoroughly, and placed at room temperature for 10 min. The SAH d2 Reagent was diluted 32-fold with EPIgeneous Detection Buffer 2, and 4 µL of the diluted SAH-d2 solution was added to each well. The plate was centrifuged and shaken for 2 min to mix thoroughly. The SAH Tb Cryptate Antibody was diluted 50-fold in EPIgeneous Detection Buffer 2. 4 µL of the diluted Tb Cryptate Antibody solution was added to each well, and the plate was centrifuged, shaken for 2 min to mix thoroughly, and left to stand at room temperature for 60 min, followed by reading on a PHERAstar FS microplate reader to obtain the 665/620 ratio. Plotting SAH concentration against the ratio to generate an x-y curve yields a corresponding calculation formula.
Reaction buffer (1×): 50 mM Tris-HCl [pH 8.5], 1 mM DTT, 0.005% Tween-20.
Compound preparation: a 20 mM solution of test compound in 100% DMSO was diluted in 100% DMSO to 1 mM as the highest concentration, and the solution at this concentration was then subjected to a 10-point, 3-fold serial dilution in 100% DMSO in a 96-well plate. Wells containing 100% DMSO served as the blank control. The above-described serially diluted compounds and the 100% DMSO were diluted 20-fold with the reaction buffer to prepare 5× compound solutions, which were mixed thoroughly for use.
The PRMT5:MEP50 was diluted in the reaction buffer to a final concentration of 12.5 nM. Then, 4 µL of the 12.5 nM PRMT5:MEP50 solution was added to each well of a 384-well plate. Wells containing 4 µL of the reaction buffer served as the negative control wells. 2 µL of the 5× compound solution was added to each well. For the negative control wells (no enzyme, no compound) and the positive control wells (no compound), 2 µL of 5% DMSO was added. The plate was sealed with a membrane, centrifuged, shaken for 2 min to mix thoroughly, and placed at room temperature for 20 min.
Preparation of substrate mixture solution: The substrate mixture solution containing 1.5 µM histone H4 peptide substrate (1-21) and 2.5 µM SAM, or 1.5 µM histone H4 peptide substrate (1-21), 2.5 µM SAM and 2.5 µM MTA was prepared in the reaction buffer.
The reaction was initiated by adding 4 µL of the substrate mixture solution (-/+ MTA) to each well. The plate was sealed with a membrane, centrifuged, shaken for 2 min to mix thoroughly, and incubated at 37°C for 120 min in a constant temperature incubator.
Detection: The detection was performed by using the EPIgeneous Methyltransferase kit. […]
(In general: Time-resolved FRET reads energy transfer from a long-lived donor to a nearby acceptor.)

The next data set concerns HCT116 MTAP-/- cells. Put plainly: HCT116 MTAP-/- cell proliferation assay (CellTiter-Glo, 10 days). The following applies: Homo sapiens, HCT-116, 240 h, growth inhibition, CTG assay Day 10. It is filed as cell-based. An excerpt: • I. Experimental materials and instruments • 1. HCT116 cell line (Nanjing Kebai Biotechnology Co., Ltd., CBP60028) • 2. HCT116 MTAP-/- cell line (Nanjing Kebai Biotechnology Co., Ltd., CBP75002) • 3. DMSO (Sigma, D2650) • 4. McCoy's 5A medium (Gibco, 16600-082) • 5. Foetal bovine serum (FBS) (Gibco, 10091148) • 6. Phosphate buffered saline (DPBS) pH 7.4 (Gibco, 14190-144) • 7. Pen strep (PS) (Gibco, 15140-122) • 8. 0.25% Typsin-EDTA (1×) (Gibco, 25200-072) • 9. CellTiter-Glo® Luminescent Cell Viability Assay (Promega, G7572) • 10. 96-well round-bottom plate (JET, TCP002096) • 11. 96-well black clear bottom plate (Hangzhou Xinyou Biotechnology Co., Ltd., 060096) • 12. 1.2 mL 96-well deep well plate, clear, sterile, square-well, V-bottom (Titan, 02089063) • 13. 15-mL centrifuge tube (Titan) • 14. Biosafety cabinet (Thermo, 1300AII) • 15. Cell counter (Countstar, IC1000) • 16. Incubator (Thermo, I160) • 17. Centrifuge (Beckman coulter, Allegra X-12 centrifuge) • 18. PHERAstar FS microplate reader (BMG Labtech) • II. Experimental procedure • 1. Cell plating (Day 0) • a) The cell morphology was observed under a microscope to ensure confluence reached approximately 90%. • b) The cell supernatant was aspirated, the cells were washed once with PBS, and then the PBS was removed; and the cells were digested by adding an appropriate amount of trypsin, and left to stand at 37°C for 3 minutes. • c) The digestion was terminated by adding an equal volume of McCoy's 5A medium containing 10% FBS, and the cell suspension was collected and centrifuged at 300 g for 3 minutes; and the cells were resuspended in an appropriate amount of fresh medium. • d) The resuspended cell suspension was taken for counting. • e) The cell suspension was diluted to 1e4/mL using McCoy's 5A medium containing 10% FBS, and seeded at 50 µL per well, corresponding to 500 cells/well for HCT116 and 500 cells/well for HCT116 MTAP-/-. • f) The cell plate was placed in a 37°C, 5% carbon dioxide incubator and incubated overnight. • 2. Compound treatment (Day 1) • a) Each compound was serially diluted in DMSO to generate a 9-point concentration gradient (starting concentration: 10000 µM, 3-fold dilution; the highest concentration may be adjusted individually based on IC50 of different compounds); for example, in a 96-well round-bottom compound-dilution plate, 5 µL of the compound was sequentially diluted into 10 µL of DMSO. • b) Each concentration point of every compound was then diluted 250-fold into the corresponding volume of McCoy's 5A medium. • c) To each cell plate, 50 µL of the diluted compound solution as described above was added sequentially to the cell supernatant (50 µL/well). • d) The compound-treated cell plate was placed in a 37°C, 5% carbon dioxide incubator and incubated. • 3. Re-digestion, re-plating and compound treatment (Day 5) • a) After 5 days of compound treatment, the compound-containing medium was aspirated, and the cells were rinsed once with PBS (100 µL/well); and the PBS was removed immediately. • b) The cells were digested by adding 25 µL of trypsin and incubated at 37°C for 3 minutes, and then the digestion was terminated by adding 175 µL/well of McCoy's 5A medium containing 10% FBS. • c) The cells were mixed thoroughly using a pipette, and re-plated at 1 : 20; and specifically, 10 µL of the cell suspension was aspirated to a new 96-well plate (pre-filled with 40 µL of McCoy's 5A medium containing 10% FBS. • d) Compounds were prepared and added according to steps a) to c) in Section 2, with 50 µL added per well. • e) The compound-treated cell plate was placed in a 37°C, 5% carbon dioxide incubator and incubated. • 4. […]
On the technique in general: ATP-based viability assays read luminescence as a measure of living cells.

Data set [2] is described as follows: Pharmacokinetic evaluation in Nu/Nu mice (plasma, LC-MS/MS). Format: in vivo. The following applies: mouse, in vivo, po, i.g., 100 mg/kg. On the procedure:
Using Nu/Nu mice as the test animals, the plasma concentrations of the example compounds at different time points were determined by LC-MS/MS following oral gavage (i.g.) administration. The pharmacokinetic behaviours of the compounds of the present disclosure in Nu/Nu mice were investigated, and their pharmacokinetic profiles were evaluated.
Compound 1-p1, compound 2-p1, compound 8-p1 and comparative example 1.
A total of 36 female Nu/Nu mice (supplied by Vital River Laboratory Animal Technology Co., Ltd.) were randomly divided into 4 groups.
An appropriate amount of each test compound was weighed and dissolved in 5% DMSO+20% PEG400+70% (10% TPGS)+5% (1% HMPC K100LV) to prepare a 10 mg/mL colourless clear solution.
The administration dosage was 100 mg/kg, and the administration volume was 10 mL/kg.
Mice were not fasted. After oral gavage administration, blood (0.1 mL) was collected from the orbital cavity before administration, and at 0.25 h, 0.5 h, 1.0 h, 2.0 h, 4.0 h, 6.0 h, 8.0 h, 11.0 h and 24.0 h after administration. The blood was placed into EDTA-K2 anticoagulant tubes and centrifuged at 10000 rpm for 1 minute (4°C) to separate plasma. The plasma was separated within 1 h and stored at -20°C until analysis. The entire process from blood collection to centrifugation was performed in ice bath conditions.
Determination of test compound contents in plasma of Nu/Nu mice after administration of different compounds: To 20 µL of plasma samples from each time point in Nu/Nu mice, 200 µL of acetonitrile and 25 µL of verapamil (100 ng/mL) were added. The mixture was vortex-mixed for 5 minutes and centrifuged at 4000 rpm for 15 minutes. 90 µL of water and 90 µL of the supernatant were vortex-mixed for 5 minutes. 2 µL (for compound 1-p1), 2 µL (for compound 2-p1), 1 µL (for compound 8-p1), or 0.5 µL (for comparative example 1) of the supernatant was taken for LC-MS/MS analysis receptively.

T1 sequence (O14744 whole entry): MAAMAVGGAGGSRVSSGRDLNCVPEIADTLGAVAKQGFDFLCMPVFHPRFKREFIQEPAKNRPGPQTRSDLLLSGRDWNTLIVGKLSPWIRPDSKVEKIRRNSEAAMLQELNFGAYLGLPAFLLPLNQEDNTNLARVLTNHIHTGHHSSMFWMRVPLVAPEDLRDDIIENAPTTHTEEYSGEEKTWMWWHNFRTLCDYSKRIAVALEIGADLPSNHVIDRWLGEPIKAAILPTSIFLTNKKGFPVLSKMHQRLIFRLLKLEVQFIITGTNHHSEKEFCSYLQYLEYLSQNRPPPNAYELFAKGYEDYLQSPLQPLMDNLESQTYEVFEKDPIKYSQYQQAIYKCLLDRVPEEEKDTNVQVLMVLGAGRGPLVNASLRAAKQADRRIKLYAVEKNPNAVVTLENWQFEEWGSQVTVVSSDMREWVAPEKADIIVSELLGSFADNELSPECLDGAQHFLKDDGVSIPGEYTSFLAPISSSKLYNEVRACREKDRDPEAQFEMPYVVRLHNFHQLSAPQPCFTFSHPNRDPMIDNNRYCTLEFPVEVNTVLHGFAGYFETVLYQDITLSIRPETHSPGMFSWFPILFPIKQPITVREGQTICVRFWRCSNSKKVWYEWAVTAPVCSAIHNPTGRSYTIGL
T1 sequence (Q9BQA1 whole entry partner): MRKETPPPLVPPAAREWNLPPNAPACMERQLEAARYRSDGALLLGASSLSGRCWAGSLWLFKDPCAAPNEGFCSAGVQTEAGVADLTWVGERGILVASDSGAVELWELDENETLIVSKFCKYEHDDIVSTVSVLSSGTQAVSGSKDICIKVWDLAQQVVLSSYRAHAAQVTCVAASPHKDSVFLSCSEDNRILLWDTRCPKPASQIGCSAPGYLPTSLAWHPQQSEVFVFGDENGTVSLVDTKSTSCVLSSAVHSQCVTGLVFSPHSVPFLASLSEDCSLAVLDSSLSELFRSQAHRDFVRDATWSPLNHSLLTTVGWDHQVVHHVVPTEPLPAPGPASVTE

As for `[2H]C([2H])([2H])n1ncc(-c2ccc3c(=O)[nH]nc(CN)c3c2)c1-c1c(F)cc2c(c1C#N)N1CCC[C@@H]1CO2` (single isomer, unassigned) [Compound 5-p2], the IC50 in data set [1] turned out to be 4.91 nM.

`[2H]C([2H])([2H])n1ncc(-c2ccc3c(=O)[nH]nc(CN)c3c2)c1-c1c(F)cc2c(c1C#N)O[C@@H]1CC[C@@H]1O2` (single isomer, unassigned) [Compound 2-p4]: the IC50 in data set [1] turned out to be 5.87 nM.

On to `Cn1ncc(-c2ccc3c(=O)[nH]nc(CN)c3c2)c1-c1c(F)cc2c(c1C#N)O[C@@H]1CC[C@@H]1O2` (atropisomer, axis not shown; (P)) [Compound 1-p4, (P)-(2aR,8aS)-5-(4-(4-(aminomethyl)-1-oxo-1,2-dihydrophthalazin-6-yl)-1-methyl-1H-pyrazol-5-yl)-6-fluoro-1,2,2a,8a-tetrahydrobenzo[b]cyclobuta[e][1,4]dioxine-4-carbonitrile], for which the IC50 in data set [1] was determined as 5.48 nM.

For `[2H]C([2H])([2H])n1ncc(-c2ccc3c(=O)[nH]nc(CN)c3c2)c1-c1c(F)cc2c(c1C#N)N1CCC[C@@H]1CO2` (single isomer, unassigned) [Compound 5-p1], the half-inhibitory concentration (IC50) in data set [1] was 7.67 nM.

As to `Cn1ncc(-c2ccc3c(=O)[nH]nc(CN)c3c2)c1-c1c(F)cc2c(c1C#N)OCCO2` (atropisomer, axis not shown) [Comparative example 1, reference compound], the concentration for half-maximal inhibition (IC50) with HCT116 MTAP-/- cells was found to be 70.8 nM. For the same compound, the Vd/F in data set [2] (read-out: Apparent volume of distribution V/F) worked out at 132 L/kg. Besides, the AUC(0-t) in data set [2] (read-out: Area under the curve AUC0-t) came to 1720 ng·h/mL. In data set [2] (read-out: Clearance CL/F), the CL/F stood at 960 mL/min/kg. For the same compound, in data set [2] (read-out: Half life T1/2 (converted)), the half-life is 1.6 h. For the same compound, the Cmax in data set [2] (read-out: Plasma concentration Cmax) worked out at 657 ng/mL.

On to `[2H]C([2H])([2H])n1ncc(-c2ccc3c(=O)[nH]nc(CN)c3c2)c1-c1c(F)cc2c(c1C#N)O[C@H]1CC[C@H]1O2` (single isomer, unassigned) [Compound 2-p3], for which, in data set [1], the IC50 turned out to be 5.31 nM.

For `[2H]C([2H])([2H])n1ncc(-c2ccc3c(=O)[nH]nc(CN)c3c2)c1-c1c(F)cc2c(c1C#N)N1CCC[C@H]1CO2` (single isomer, unassigned) [Compound 8-p2], the IC50 in data set [1] was 3.86 nM.

`[2H]C([2H])([2H])n1ncc(-c2ccc3c(=O)[nH]nc(CN)c3c2)c1-c1c(F)cc2c(c1C#N)OCC21CC1` [Compound 12, 6-(4-(4-(aminomethyl)-1-oxo-1,2-dihydrophthalazin-6-yl)-1-(methyl-d3)-1H-pyrazol-5-yl)-5-fluoro-2H-spiro[benzofuran-3,1'-cyclopropane]-7-carbonitrile]: the half-maximal inhibitory concentration (IC50) in data set [1] was found to be 6.39 nM.
